In US20120100555A1, “Synthesis And Use Of Fluorophore-Tagged Antimalarials” (priority 2009, published 2012):

Legend:
[1] = system: P. falciparum strains 3D7 (CQ-susceptible); assay: Inhibitory concentration (IC50) determination, Hoechst staining and flow cytometry; format: cell-based, Plasmodium falciparum
Method: Parasitized cultures were incubated for 48 hours with various concentrations of the test compounds and, thereafter, parasitemia was determined using Hoechst staining and flow cytometric analyses.
(§1) Plasmodium falciparum culture. […] Parasite cultures were maintained in 75 cm^2 or 125 cm^2 flasks using malaria culture media (MCM) consisting of RPMI 1640 supplemented with 0.5% (w/v) albumax I (Invitrogen), 0.005% (w/v) hypoxanthine, 0.03% (w/v) L-glutamate, 0.25% (w/v) gentamycin and 2.5% human erythrocytes. Flasks were gassed with 3% CO2, 4% O2 and 93% N2 and incubated at 37° C. in a dark incubator. Culture medium was replenished during subculturing on alternate days. Thin Giemsa smears were made to determine parasitemia before subculture and at the start of each experiment. Sorbitol synchronization (See Lambros, C., and Vanderberg, J. P. (1979) J Parasitol 65, 418-420) was carried out weekly to select for ring-stage parasites. Saponin enrichment (See Beaumelle, B. D., et al., (1987) J. Parasitol 73, 743-748) was carried out prior to staining with CaspaTag to liberate the parasites from host erythrocytes. Cultures of approximately 10% parasitemia were used, with parasites being in the late-ring stage (22-26 hours post-invasion) during the administration of inhibitor and drugs unless otherwise stated.
Inhibitory concentration (IC50) determination. […] To determine parasitemia, cultures were stained with Hoechst 33342, as described above, and analyzed by flow cytometry.
(§2) Flow Cytometric Analyses. Cell numbers and fluorescence intensity after staining with JC-1 were assayed by a flow cytometer (DAKO Cytomation Cyan ADP), equipped with an argon-ion laser tuned to 488 nm and a violet laser tuned to 405 nm. Green and red fluorescence was detected using 525 and 595 nm band-pass filters respectively. The flow cytometer was adjusted for forward and side scattering to accommodate infected erythrocytes. Between 10,000 to 20,000 infected erythrocytes or enriched parasites were analyzed from each sample and its respective duplicate to ensure reliability. At least three independent experiments were performed unless otherwise stated.

P. falciparum, 3D7 [2] = assay: Mitochondria trans-membrane potential assay (JC-1); format: cell-based, Plasmodium falciparum
Method: as §1, with “Cultures of approximately 10% parasitemia were used, with parasites being in the late-ring stage (22-26 hours post-invasion) during the administration of inhibitor and drugs unless otherwise stated.” left out
as §2, with “The flow cytometer was adjusted for forward and side scattering to accommodate infected erythrocytes.” left out, “At least three independent experiments were performed unless otherwise stated.” left out

[3] = system: Plasmodium falciparum parasites; assay: CM-CQ accumulation with chemo-sensitizers, flow cytometry; format: cell-based; settings: for effect of pre-treatment on CM-CQ accumulation in K1: K1 (CQ-resistant), 10 uM chemo-sensitizer 30 min, then 6 uM CM-CQ 10 hrs
Method: FIG. 8 is a graph showing the effects of chemo-sensitizers on coumarin-conjugated chloroquine (CM-CQ) accumulation in Plasmodium falciparum parasites. Data were obtained by flow cytometry.
(§3) Subsequently, 6 uM of Coumarin-Chloroquine (CM-CQ) was added to the samples for 10 hrs and left to incubate in the dark at 37° C. To ascertain the exact parasitemia of each condition, cultures in duplicate wells were stained with Hoechst just before flow cytometric analysis and fluorescence plate measurements. The proportion of CM-CQ-stained parasites was the ratio of the proportion of CM-CQ-stained infected erythrocyte culture over the proportion of Hoechst-positive erythrocytes.

[4] = system: Plasmodium falciparum parasites; assay: CM-CQ accumulation with chemo-sensitizers, fluorescent plate reader; format: cell-based; settings: for effect of pre-treatment on CM-CQ accumulation in K1: K1 (CQ-resistant), 10 uM chemo-sensitizer 30 min, then 6 uM CM-CQ 10 hrs
Method: FIG. 9 is a graph showing the effects of chemo-sensitizers on coumarin-conjugated chloroquine (CM-CQ) accumulation in Plasmodium falciparum parasites, obtained by spectrofluorometer plate readings.
as §3

P. falciparum, 3D7 [5] = settings: low nanomolar concentrations of CQ, 8 hours
Method: as §1

[6] = 3D7, 48 hours, at the tested concentrations

| SMILES | effect of pre-treatment on CM-CQ accumulation in K1 [3] | effect of pre-treatment on CM-CQ accumulation in K1 [4] | also measured |
| --- | --- | --- | --- |
| CN(C)c1ccc2c(CC(=O)O)cc(=O)oc2c1 [CM, 7-dimethyl amino-4-coumarinacetic acid] | – | – | cytotoxicity [1, 6]: not cytotoxic; inhibitory effect on parasitemia [1, 6]: no detectable inhibitory effect |
| CCN(CCCCNc1ccnc2cc(Cl)ccc12)CC(=O)NCCNC(=O)Cc1cc(=O)oc2cc(N(C)C)ccc12 [CM-CQ] | – | – | activity compared to chloroquine (FIG. 2) ([1]; 3D7): activity comparable to chloroquine; IC50 ([1]; Plasmodium falciparum, read-out: IC50 (50% inhibitory concentration), 3D7, ring stage, 48 hours, parasitemia by Hoechst 33342 flow cytometry): 349 nM; proportion of parasites containing functional mitochondrion with transmembrane potential (ΔΨm) after treatment (P. falciparum, 3D7 [2]; JC-1 J-aggregates, dose-dependent decline from about 90% in uninduced cells): ~60%; CM-CQ accumulation, 3D7 compared to 7G8 and K1 ([3]; 6 uM CM-CQ 10 hrs, p<0.05): different levels; CM-CQ accumulation, 3D7 compared to 7G8 and K1 ([4]; 6 uM CM-CQ 10 hrs, p<0.001): different levels |
| CN(C)CCC(c1ccc(Cl)cc1)c1ccccn1 (centres unmarked) [CPR, chlorpheneramine] | increase was also detected | significantly increased | – |
| CN(C)CCCN1c2ccccc2Sc2ccc(Cl)cc21 [CPZ, chlorpromazine] | significantly increased | significantly increased | – |
| CCN(CC)CCCC(C)Nc1ccnc2cc(Cl)ccc12 (centres unmarked) [CQ, Chloroquine diphosphate] | – | – | PCD features (JC-1) (P. falciparum, 3D7 [2]; low nanomolar concentrations of CQ, 8 hours): basal levels; PCD features (CaspaTag) (P. falciparum, 3D7 [5]): basal levels |
| CNCCCN1c2ccccc2CCc2ccccc21 [DSP, desipramine] | significantly increased | significantly increased | – |
| COc1ccc([C@@H]2Sc3ccccc3N(CCN(C)C)C(=O)[C@@H]2OC(C)=O)cc1 [DTZ, diltiazem] | not | not | – |
| CC(CN1c2ccccc2Sc2ccccc21)N(C)C (centres unmarked) [PMZ, promethazine] | significantly increased | increase was also detected | – |
| CC(C)NCC(O)COc1cccc2ccccc12 (centres unmarked) [PPL, propranolol] | not | not | – |
| COc1ccc(CCN(C)CCCC(C#N)(c2ccc(OC)c(OC)c2)C(C)C)cc1OC (centres unmarked) [VPM, verapamil] | significantly increased | significantly increased | – |
